Molecular target: T1, human SGLT2 (Homo sapiens, UniProt P31639)
T1 construct: expressed in transfected cells
T1 sequence (P31639 1-672): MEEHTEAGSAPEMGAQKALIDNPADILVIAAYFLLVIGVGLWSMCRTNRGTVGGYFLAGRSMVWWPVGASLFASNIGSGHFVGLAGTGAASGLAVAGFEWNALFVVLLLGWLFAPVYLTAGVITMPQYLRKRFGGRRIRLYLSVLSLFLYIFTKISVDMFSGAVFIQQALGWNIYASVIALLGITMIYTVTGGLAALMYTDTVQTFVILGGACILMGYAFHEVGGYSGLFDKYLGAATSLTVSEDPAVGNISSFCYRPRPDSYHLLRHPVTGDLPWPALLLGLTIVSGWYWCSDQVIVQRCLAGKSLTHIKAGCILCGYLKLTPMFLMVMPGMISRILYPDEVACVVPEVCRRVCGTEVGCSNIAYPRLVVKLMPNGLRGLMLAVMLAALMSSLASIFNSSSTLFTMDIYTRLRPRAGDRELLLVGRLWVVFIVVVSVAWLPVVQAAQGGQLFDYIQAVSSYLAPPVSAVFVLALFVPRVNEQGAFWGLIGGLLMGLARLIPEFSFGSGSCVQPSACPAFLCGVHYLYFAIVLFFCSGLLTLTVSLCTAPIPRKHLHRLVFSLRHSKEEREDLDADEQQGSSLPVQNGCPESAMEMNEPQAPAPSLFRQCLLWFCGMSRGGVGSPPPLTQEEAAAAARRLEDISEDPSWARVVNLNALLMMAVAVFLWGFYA
Assay: Inhibition of methyl-α-D-glucopyranoside uptake in CHO cells stably expressing human SGLT2
Type: cell-based
Settings: methyl-α-D-(U-14C)glucopyranoside uptake, 37° C., 45 minutes, read-out: ICH value for the inhibition of SGLT2
Method: Assay for Evaluating Inhibition of Activity of Human Na^+-Glucose Cotransporter (SGLT1 and SGLT2)
Human SGLT2 cDNA was amplified by PCR with a cDNA library derived from human kidney (Clontech) as a template, synthetic DNA primers, and KOD+ DNA Polymerase. The amplified cDNA was inserted into pcRII-Topo vector by using a Topo TA Cloning Dual Promoter kit. E. coli competent cells (TPO10) were transformed with the plasmid vector, and then cultured in LB medium containing ampicillin (50 mg/L) to grow ampicillin-resistant clones. The plasmid vector containing human SGLT2 cDNA was purified from the clone in a standard manner. Human SGLT2 cDNA added restriction enzyme recognition sites (Xho I at 5′-end, Hind III at 3′-end) was amplified by PCR with the plasmid vector as a template, synthetic DNA primers containing an additional restriction enzyme recognition site, and KOD+ DNA Polymerase. This amplified cDNA was digested with Xho I and Hind III, and the resulting fragment was ligated into expression vector pcDNA3.1(−) digested with Xho I and Hind III by using a Rapid DNA Ligation kit. E. coli competent cells (DH5α) were transformed with the ligated expression vector and grown in ampicillin-containing LB medium. Human SGLT2 expression vector was purified from the ampicillin-resistant clone in a standard manner. […]

**Q.** For CCc1ccc(Cc2ccc3c(c2)[C@]2(OC3)S[C@H](CO)[C@@H](O)[C@H](O)[C@H]2O)cc1 [Example 1, (1S,3′R,4′S,5′S,6′R)-6-[(4-ethylphenyl)methyl]-3′,4′,5′,6′-tetrahydro-6′-(hydroxymethyl)-spiro[isobenzofuran-1(3H),2′-[2H]thiopyran]-3′,4′,5′-triol], which IC50 is on record?
**A.** The IC50 was 12 nM.

Reference: patent US20100093744A1, “THIOGLUCOSE SPIROKETAL DERIVATIVE AND USE THEREOF AS THERAPEUTIC AGENT FOR DIABETES” (Chugai Seiyaku Kabushiki Kaisha, priority 2007, published 2010)
